In test [1] the test system is cancer cells within HNSCC patient tumour slices. Nature of the test: Cancer cell kill: pan-cytokeratin+ / cleaved caspase-3+ cells by dual IHC or IF in drug-treated tumour slices. In kind it is cell-based, human. As to the method: H&E staining and dual IHC were performed on drug-treated and untreated HNSCC slices. Briefly, slices were fixed, processed using the automatic tissue processor, and embedded in paraffin. Paraffin blocks were sectioned and H&E staining was performed. Dual IHC was performed using ChromoPlex 1 Dual Detection (Leica DS9665) with a high pH EDTA-based buffer (ER2, Leica AR9640) for 20 min. A specific cocktail of antibodies was used to identify cancer cell apoptosis, including pan-cytokeratin and cleaved caspase-3 antibody. Standard immunofluorescence were performed with active YAP1. Image acquisition was done using the slide scanning system. The images were processed with a customized analysis profile using the nuclear segmentation method to quantify the percentage of apoptotic cancer cells.

Test [2] concerns CD8+ cells in HNSCC tumour slices. Nature of the test: Flow cytometry of granzyme B expression in CD8+ cells of drug-treated HNSCC patient tumour slices. In kind it is cell-based, human. As for the experimental part:
Tumour slices were first manually removed from the hydrogel and digested. Dissociated cells were spun down, washed, and resuspended, and counted using a cell counter. Prior to fixing, cells were stained for surface proteins with fluorophore-conjugated antibodies and fixable dye. The cell suspension were then […]. Compensation was performed using single stains; live cells and singlets were gated by gating on a dye differentiating live and dead cells or on scatter characteristics or both.
In general terms: In flow cytometry, cells or beads pass a laser one at a time.

In turn, `N.N.[Cl][Pt][Cl]` [cisplatin] gave an apoptotic cancer cells in test [1] (Patient 6 (HN358), controls ~5%) of roughly 12%.

On to pembrolizumab, for which, in test [1] (Patient 6 (HN358), Day 2, controls ~11%), the “cleaved caspase-3 positivity (apoptotic) in cancer cells” value is listed as roughly 25%. Also, the “tumour kill in drug-treated slices” value in test [1] (Patient 7 (HN359)) is on record as “no enhanced tumour kill”. In addition, the “granzyme B expression in CD8+ cells” value in test [2] (Patient 6 (HN358), control 8.9%) was 5.2%; in test [2] (Patient 7 (HN359), compared to control) it was “slight increase”.

These data come from patent publication US20240201170A1, “MAINTENANCE AND/OR CULTURE OF TISSUE SLICES IN VITRO OR EX VIVO” (NATIONAL UNIVERSITY OF SINGAPORE, priority 2021, published 2024).
